This note sets out measurements from patent US9175003B2, “Substituted azoanthracene derivatives and intermediates for preparation thereof” (TransTech Pharma, LLC, priority 2009, dated 2015).

By EC50 is commonly meant the midpoint of the concentration-response curve.

For the test, the target named is human GLP-1 receptor (Homo sapiens (Human), UniProt P43220). The following applies: read-out: Mean EC50; cAMP, HTRF detection, 30 min at 37° C., HEK-293 cells expressing cloned human GLP-1 receptor.
human GLP-1 receptor, sequence (P43220 24-463): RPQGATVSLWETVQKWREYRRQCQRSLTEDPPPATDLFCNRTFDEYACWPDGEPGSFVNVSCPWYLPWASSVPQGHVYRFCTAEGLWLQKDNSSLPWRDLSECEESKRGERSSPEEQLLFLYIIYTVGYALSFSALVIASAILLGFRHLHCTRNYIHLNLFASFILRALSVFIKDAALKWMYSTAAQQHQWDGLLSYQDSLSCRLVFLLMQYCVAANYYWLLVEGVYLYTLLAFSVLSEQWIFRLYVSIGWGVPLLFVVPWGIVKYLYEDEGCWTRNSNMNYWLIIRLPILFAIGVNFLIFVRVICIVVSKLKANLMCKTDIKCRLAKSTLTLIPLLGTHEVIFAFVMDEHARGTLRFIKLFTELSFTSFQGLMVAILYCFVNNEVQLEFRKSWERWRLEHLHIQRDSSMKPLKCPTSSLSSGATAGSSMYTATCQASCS
Description: Following overnight incubation of cells, media was removed, and compounds (at concentrations ranging from 0.0001 to 100 μM) were added to monolayer cells in Iscove's modified dulbecco's medium (IMDM), 100 μM RO 20-1724 PDE inhibitor, 0.1% BSA, 2% DMSO in a final volume of 100 μL, and incubated for 30 min at 37° C. […] Alternatively, cells were harvested and combined with compounds in suspension using the buffer and protocol described above. cAMP was quantified using a homogenous time-resolved fluorescence detection system (cAMP dynamic, CIS bio International).
As for `Cc1nc(C(=O)N2Cc3cc4c(cc3C[C@H]2C(=O)N[C@@H](Cc2ccc(-c3ccnc(C)c3C)cc2)C(=O)O)OC[C@H](c2ccc(OCC3CCCC3)cc2)O4)c(C)o1` [Example 379, (S)-2-{[(3S,8S)-3-(4-cyclopentylmethoxy-phenyl)-7-(2,5-dimethyl-oxazole-4-carbonyl)-2,3,6,7,8,9-hexahydro-[1,4]dioxino[2,3-g]isoquinoline-8-carbonyl]-amino}-3-[4-(2,3-dimethyl-pyridin-4-yl)-phenyl]-propionic acid], the 50% effective concentration (EC50) was found to be 152 nM. Then `Cc1nc(C(=O)N2Cc3cc4c(cc3C[C@H]2C(=O)N[C@@H](Cc2ccc(-c3ccnc(C)c3C)cc2)C(=O)O)OC[C@H](c2ccc(OCCC(C)(C)C)cc2)O4)c(C)o1` [Example 380, (S)-2-{[(3S,8S)-3-[4-(3,3-dimethyl-butoxy)-phenyl]-7-(2,5-dimethyl-oxazole-4-carbonyl)-2,3,6,7,8,9-hexahydro-[1,4]dioxino[2,3-g]isoquinoline-8-carbonyl]-amino}-3-[4-(2,3-dimethyl-pyridin-4-yl)-phenyl]-propionic acid], with 213 nM; and `Cc1nc(C(=O)N2Cc3cc4c(cc3C[C@H]2C(=O)N[C@@H](Cc2ccc(-c3ccnc(C)c3C)cc2)C(=O)O)OC[C@H](c2ccc(O[C@H]3CC[C@@H](C)CC3)cc2)O4)c(C)o1` [Example 381, (S)-2-({(3S,8S)-7-(2,5-Dimethyl-oxazole-4-carbonyl)-3-[4-(cis-4-methyl-cyclohexyloxy)-phenyl]-2,3,6,7,8,9-hexahydro-[1,4]dioxino[2,3-g]isoquinoline-8-carbonyl}-amino)-3-[4-(2,3-dimethyl-pyridin-4-yl)-phenyl]-propionic acid], with 313 nM.

`Cc1nc(C(=O)N2Cc3cc4c(cc3C[C@H]2C(=O)N[C@@H](Cc2ccc(-c3ccnc(C)c3C)cc2)C(=O)O)OC[C@H](c2ccc(O[C@H]3CC[C@H](C)CC3)cc2)O4)c(C)o1` [Example 382, (S)-2-({(3S,8S)-7-(2,5-Dimethyl-oxazole-4-carbonyl)-3-[4-(trans-4-methyl-cyclohexyloxy)-phenyl]-2,3,6,7,8,9-hexahydro-[1,4]dioxino[2,3-g]isoquinoline-8-carbonyl}-amino)-3-[4-(2,3-dimethyl-pyridin-4-yl)-phenyl]-propionic acid]: the EC50 is 106 nM.

Take `Cc1nc(C(=O)N2Cc3cc4c(cc3C[C@H]2C(=O)N[C@@H](Cc2ccc(-c3ccnc(C)c3C)cc2)C(=O)O)OC[C@H](c2ccc(OCc3ccc(Cl)cc3Cl)cc2)O4)c(C)o1` [Example 383, (S)-2-{[(3S,8S)-3-[4-(2,4-dichloro-benzyloxy)-phenyl]-7-(2,5-dimethyl-oxazole-4-carbonyl)-2,3,6,7,8,9-hexahydro-[1,4]dioxino[2,3-g]isoquinoline-8-carbonyl]-amino}-3-[4-(2,3-dimethyl-pyridin-4-yl)-phenyl]-propionic acid]: the EC50 came to 138 nM.

As to `Cc1nc(C(=O)N2Cc3cc4c(cc3C[C@H]2C(=O)N[C@@H](Cc2ccc(-c3ccnc(C)c3C)cc2)C(=O)O)OC[C@H](c2ccc(OCc3cc(Cl)cc(Cl)c3)cc2)O4)c(C)o1` [Example 384, (S)-2-{[(3S,8S)-3-[4-(3,5-Dichloro-benzyloxy)-phenyl]-7-(2,5-dimethyl-oxazole-4-carbonyl)-2,3,6,7,8,9-hexahydro-[1,4]dioxino[2,3-g]isoquinoline-8-carbonyl]-amino}-3-[4-(2,3-dimethyl-pyridin-4-yl)-phenyl]-propionic acid], the EC50 came out at 26 nM. As to `Cc1nc(C(=O)N2Cc3cc4c(cc3C[C@H]2C(=O)N[C@@H](Cc2ccc(-c3ccnc(C)c3C)cc2)C(=O)O)OC[C@H](c2ccc(O[C@H]3CC[C@@H](C(C)(C)C)CC3)cc2)O4)c(C)o1` [Example 386, (S)-2-{[(3S,8S)-3-[4-(cis-4-tert-Butyl-cyclohexyloxy)-phenyl]-7-(2,5-dimethyl-oxazole-4-carbonyl)-2,3,6,7,8,9-hexahydro-[1,4]dioxino[2,3-g]isoquinoline-8-carbonyl]-amino}-3-[4-(2,3-dimethyl-pyridin-4-yl)-phenyl]-propionic acid], the concentration for a half-maximal effect (EC50) worked out at 269 nM. With `Cc1nc(C(=O)N2Cc3cc4c(cc3C[C@H]2C(=O)N[C@@H](Cc2ccc(-c3ccnc(C)c3C)cc2)C(=O)O)OC[C@H](c2ccc(OCCc3ccc(Cl)c(Cl)c3)cc2)O4)c(C)o1` [Example 387, (S)-2-{[(3S,8S)-3-{4-[2-(3,4-Dichloro-phenyl)-ethoxy]-phenyl}-7-(2,5-dimethyl-oxazole-4-carbonyl)-2,3,6,7,8,9-hexahydro-[1,4]dioxino[2,3-g]isoquinoline-8-carbonyl]-amino}-3-[4-(2,3-dimethyl-pyridin-4-yl)-phenyl]-propionic acid] the figure was 34 nM; with `Cc1nccc(-c2ccc(C[C@H](NC(=O)[C@@H]3Cc4cc5c(cc4CN3C(=O)N[C@H](C)c3ccccc3)O[C@@H](c3ccc(OCCc4ccc(Cl)cc4)cc3)CO5)C(=O)O)cc2)c1C` [Example 388, (S)-2-{[(3S,8S)-3-{4-[2-(4-Chloro-phenyl)-ethoxy]-phenyl}-7-((R)-1-phenyl-ethylcarbamoyl)-2,3,6,7,8,9-hexahydro-[1,4]dioxino[2,3-g]isoquinoline-8-carbonyl]-amino}-3-[4-(2,3-dimethyl-pyridin-4-yl)-phenyl]-propionic acid], 179 nM. Then `Cc1nccc(-c2ccc(C[C@H](NC(=O)[C@@H]3Cc4cc5c(cc4CN3C(=O)N[C@H](C)c3ccccc3)O[C@@H](c3ccc(O[C@H]4CC[C@H](C(C)(C)C)CC4)cc3)CO5)C(=O)O)cc2)c1C` [Example 389, (S)-2-{[(3S,8S)-3-[4-(trans-4-tert-Butyl-cyclohexyloxy)-phenyl]-7-((R)-1-phenyl-ethylcarbamoyl)-2,3,6,7,8,9-hexahydro-[1,4]dioxino[2,3-g]isoquinoline-8-carbonyl]-amino}-3-[4-(2,3-dimethyl-pyridin-4-yl)-phenyl]-propionic acid], with 191 nM. Then `Cc1nccc(-c2ccc(C[C@H](NC(=O)[C@@H]3Cc4cc5c(cc4CN3C(=O)N[C@H](C)c3ccccc3)O[C@@H](c3ccc(OCc4cc(Cl)cc(Cl)c4)cc3)CO5)C(=O)O)cc2)c1C` [Example 393, (S)-2-{[(3S,8S)-3-[4-(3,5-dichloro-benzyloxy)-phenyl]-7-((R)-1-phenyl-ethylcarbamoyl)-2,3,6,7,8,9-hexahydro-[1,4]dioxino[2,3-g]isoquinoline-8-carbonyl]-amino}-3-[4-(2,3-dimethyl-pyridin-4-yl)-phenyl]-propionic acid], with 74 nM.

As to `Cc1nccc(-c2ccc(C[C@H](NC(=O)[C@@H]3Cc4cc5c(cc4CN3C(=O)N[C@H](C)c3ccccc3)O[C@@H](c3ccc(OCCc4ccc(Cl)c(Cl)c4)cc3)CO5)C(=O)O)cc2)c1C` [Example 396, (S)-2-{[(3S,8S)-3-{4-[2-(3,4-Dichloro-phenyl)-ethoxy]-phenyl}-7-((R)-1-phenyl-ethylcarbamoyl)-2,3,6,7,8,9-hexahydro-[1,4]dioxino[2,3-g]isoquinoline-8-carbonyl]-amino}-3-[4-(2,3-dimethyl-pyridin-4-yl)-phenyl]-propionic acid], the EC50 worked out at 156 nM.
